Measured values: patent US20250280827A1, “An antifungal composition comprising natamycin and at least one insecticide” (priority 2021, published 2025)
Where two headings read alike, the source gives them in different places.

Tests used:
Sclerotinia sclerotiorum = test: Antifungal effect against Sclerotinia sclerotiorum infection on wounded skin of broad bean pods (rot area, Colby synergy); type: in vivo; settings: natamycin-insecticide 15-0 ppm
Fusarium graminerum = type: cell-based; settings: 6 days after inoculation
Text: (§1) The Colby equation (Colby, 1967. Weeds 15:20-22) calculates the expected antifungal activity (E in %) of a combination comprising more than one active ingredients:
(§2) wherein X and Y are the observed antifungal activities (in %) of the individual active ingredients x and y, respectively. If the observed antifungal activity (O in %) of the combination exceeds the expected antifungal activity (E in %) of the combination and the synergy factor O/E is thus >1.0, the combined application of the active ingredients leads to a synergistic antifungal effect.
(§3) Agar medium was prepared by mixing in a 100 ml Duran bottle 3.9 g of potato dextrose agar (PDA) from Carl-Roth (Carl-Roth GmbH+Co. KG, Karlsruhe, Germany) with 100 ml deionized water and autoclaving the Duran bottle at 120° C. for 15 minutes. After autoclaving, the solution was cooled by putting it in a 48° C. oven for about two hours. Afterward the semi-liquid PDA solution was carefully mixed with natamycin and/or insecticide dosages as specified in Table 5 showing the interaction results on petri dishes. The medium in the Duran bottle was divided over 5 petri dishes (90×15 mm), 20 ml per petri dish by using 25 ml serological pipets (ROTILABO®; Carl-Roth). Each natamycin and/or insecticide treatment was performed in fivefold.
(§4) Fungal spore suspensions were prepared by drenching a fully grown petri dish with sterile water. The fungus was scraped off and filtered through a Miracloth (pore size: 22-25 μm) (Merck KGaA, Darmstadt, Germany; catalogue number: 475855). The number of spores were counted with a hemocytometer and fungal suspension was adjusted to 10^6 spores per ml. Afterward, 5 μl of prepared spore suspension was pipetted on the center of the agar plate. The plates were incubated at 25° C. Measurement of the fungal growth was done using callipers at different time points. Assessment of the infection area was 6 days after inoculation.
(§5) The insecticide levels and the period after which the assessments were made are presented as specified for the different insecticides are presented in Table 5 below. Synergistic calculation was done using the Colby equation. Experiment was performed in 5-fold.
The experiments were performed as described in Example 3. The product KARATE ZEON® of company Syngenta containing the active ingredient lambda-cyhalothrin belonging to IRAC Group 3 was tested. Assessment of the infection area was 6 days after inoculation. Experiment was performed in 5-fold.

Fusarium culmorum = test: Antifungal effect against Fusarium culmorum on PDA petri dishes (fungal growth area, Colby synergy); type: cell-based; settings: natamycin-insecticide 0.5-0 ppm
Text: as §1, §2, §3, §4, §5
The experiments were performed as described in Example 3. Assessment of the infection area was 6 days after inoculation. Experiment was performed in 5-fold.
The experiments were performed as described in Example 3. The product KARATE ZEON® of company Syngenta containing the active ingredient lambda-cyhalothrin belonging to IRAC Group 3 was tested. Assessment of the infection area was 3 days after inoculation. Experiment was performed in 5-fold.

Botrytis cinerea = test: Antifungal effect against Botrytis cinerea infection on wounded peel of banana fruits (Colby synergy); type: in vivo; settings: natamycin-insecticide 1:0 ppm
[1] = 23 h after inoculation, Table 4
[2] = 23 h after inoculation, Table 7
[3] = 23 hours after inoculation, Table 9
[4] = 30 h after inoculation, Table 3
[5] = 31 hours after inoculation, Table 8
[6] = natamycin-insecticide 0.5-0 ppm, Table 5
[7] = natamycin-insecticide 1-0 ppm, Table 10
[8] = 3 days after inoculation, Table 11
[9] = 6 days after inoculation, Table 6
[10] = 3 days after inoculation, Table 14A
[11] = 3 days after inoculation, Table 14B
[12] = 5 days after inoculation, Table 12A
[13] = 5 days after inoculation, Table 12B
[14] = 5 days after inoculation, Table 18A
[15] = 5 days after inoculation, Table 18B

SMILES: C[C@@H]1C/C=C/C=C/C=C/C=C/[C@H](O[C@@H]2O[C@H](C)[C@@H](O)[C@H](N)[C@@H]2O)C[C@@H]2O[C@](O)(C[C@@H](O)C[C@H]3O[C@@H]3/C=C/C(=O)O1)C[C@H](O)[C@H]2C(=O)O [natamycin]
- Avg infected area (Sclerotinia sclerotiorum; [1]): 104.2 mm2
- Observed antifungal activity (Sclerotinia sclerotiorum; [1]): 33.5%
- Avg infected area (Sclerotinia sclerotiorum; [2]): 99.9 mm2
- Observed antifungal activity (Sclerotinia sclerotiorum; [2]): 26.9%
- Avg infected area (Sclerotinia sclerotiorum; [3]): 66.2 mm2
- Observed antifungal activity (Sclerotinia sclerotiorum; [3]): 41.8%
- Avg infected area (Sclerotinia sclerotiorum; [4]): 278.54 mm^2
- Observed antifungal activity (Sclerotinia sclerotiorum; [4]): 11.4%
- Avg infected area (Sclerotinia sclerotiorum; [5]): 172.7 mm2
- Observed antifungal activity (Sclerotinia sclerotiorum; [5]): 33.1%
- Avg infected area (Fusarium graminerum; [6]): 1054.4 mm2
- Observed antifungal activity (Fusarium graminerum; [6]): 7.2%
- Avg infected area (Fusarium graminerum; [7]): 1107.7 mm2
- Observed antifungal activity (Fusarium graminerum; [7]): 69.4%
- Avg infected area (Fusarium culmorum; [8]): 297.7 mm2
- Observed antifungal activity (Fusarium culmorum; [8]): 17.9%
- Avg infected area (Fusarium culmorum; [9]): 810.2 mm2
- Observed antifungal activity (Fusarium culmorum; [9]): 18.8%
- Avg infected area (Botrytis cinerea; [10]): 9.2 mm2
- Observed antifungal activity (Botrytis cinerea; [10]): 18.8%
- Avg infected area (Botrytis cinerea; [11]): 5.5 mm2
- Observed antifungal activity (Botrytis cinerea; [11]): 43.9%
- Avg infected area (Botrytis cinerea; [12]): 52.6 mm2
- Observed antifungal activity (Botrytis cinerea; [12]): 18.0%
- Avg infected area (Botrytis cinerea; [13]): 84.7 mm2
- Observed antifungal activity (Botrytis cinerea; [13]): 14.3%
- Avg infected area (Botrytis cinerea; [14]): 30.7 mm2
- Observed antifungal activity (Botrytis cinerea; [14]): 37.6%
- Avg infected area (Botrytis cinerea; [15]): 25.9 mm2
- Observed antifungal activity (Botrytis cinerea; [15]): 11.6%
